Test results reported in patent US12357711B2, “PSMA binding dual mode radiotracer and therapeutic” (Technische Universität München, priority 2019, dated 2025).
Where “and” joins values, the source holds several entries; their conditions need not be identical. Identical values can stand only once.

Legend:
human serum albumin = biological target: T1, human serum albumin (Homo sapiens, UniProt P02768); assay: HSA binding on Chiralpak HSA column; format: in vitro ADME; conditions: Chiralpak HSA column (50 × 3 mm, 5 μm)
T1 construct: purchased H13H-2433
Method: The mobile phase (A: NH4OAc, 50 mM in water, pH 7 and B: isopropanol) was freshly prepared for each experiment and only used for one day. The column was kept at room temperature and each run was stopped after detection of the signal to reduce the acquisition time. All substances were dissolved in a 0.5 mg/ml concentration in 50% 2-propanol and 50% 50 mM pH 6.9 ammonium acetate buffer. […] All nine reference substances were injected consecutively to establish a non-linear regression with Origin Pro 2016G.

patients = assay: Human biodistribution and uptake in tumor lesions (PET/CT, SUV); format: in vivo; conditions: clinical PET/CT
Method: Human biodistribution was estimated by analysing clinical ^18F-rhPSMA-7- and ^18F-rhPSMA-7.3-PET/CT exams in 47 and 32 patients, respectively.
The mean and maximum standardized uptake values (SUVmean/SUVmax) were determined for background (gluteal muscle), normal organs (salivary glands, blood pool, lung, liver, spleen, pancreas, duodenum, kidney, bladder, bone) and three representative tumor lesions. Tumor uptake was analyzed in 89 lesions (26 primary tumors/local recurrences, 23 bone, 38 lymph node and 2 visceral metastases) and 63 lesions (14 primary tumors/local recurrences, 30 bone, 18 lymph node and 1 visceral metastases) for ^18F-rhPSMA-7 and ^18F-rhPSMA-7.3, respectively.
Organ-background and Tumor-background ratios were calculated.

[1] = system: LNCaP tumor-bearing SCID mice; assay: Biodistribution at 1 h p.i.; format: in vivo
Method: FIG. 10: Biodistribution (in % ID/g) of ^18E-labeled rhPSMA tracers at 1 h p.i in LNCaP tumor-bearing SCID mice. Data are expressed as mean±SD (n=4 for rhPSMA7.1, n=5 for 7.2, n=4 for 7.3, n=5 for 7.4 and n=3 for 7-rac).

T1 sequence (P02768 25-609): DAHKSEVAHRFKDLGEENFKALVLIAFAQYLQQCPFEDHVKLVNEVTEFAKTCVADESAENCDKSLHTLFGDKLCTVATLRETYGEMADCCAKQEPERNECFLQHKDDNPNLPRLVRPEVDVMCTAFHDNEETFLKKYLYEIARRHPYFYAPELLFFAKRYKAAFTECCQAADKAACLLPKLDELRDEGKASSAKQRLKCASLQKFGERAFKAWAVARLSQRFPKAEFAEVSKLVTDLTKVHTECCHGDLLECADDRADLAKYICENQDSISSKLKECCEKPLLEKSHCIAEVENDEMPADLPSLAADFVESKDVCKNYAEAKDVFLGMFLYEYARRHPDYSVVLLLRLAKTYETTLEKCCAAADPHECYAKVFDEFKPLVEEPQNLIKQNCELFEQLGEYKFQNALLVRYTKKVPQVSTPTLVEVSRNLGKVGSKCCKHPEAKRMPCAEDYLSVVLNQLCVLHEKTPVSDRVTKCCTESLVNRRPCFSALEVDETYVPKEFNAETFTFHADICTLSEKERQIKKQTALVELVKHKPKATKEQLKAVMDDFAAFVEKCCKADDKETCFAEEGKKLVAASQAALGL

Substance: [^19F][^natGa]D/L-Dap-R/S-DOTAGA-rhPSMA7 [rhPSMA7-rac]
- HSA Binding (human serum albumin): 96.7%
- SUVmax bladder, max (patients): 112.0
- SUVmax bladder, mean (patients): 8.5
- SUVmax bladder, min (patients): 0.5
- SUVmax bloodpool, max (patients): 3.9
- SUVmax bloodpool, mean (patients): 2.4
- SUVmax bloodpool, min (patients): 1.6
- SUVmax duodenum, max (patients): 32.7
- SUVmax duodenum, mean (patients): 14.8
- SUVmax duodenum, min (patients): 2.8
- SUVmax kidney, max (patients): 75.2
- SUVmax kidney, mean (patients): 44.8
- SUVmax kidney, min (patients): 19.1
- SUVmax liver, max (patients): 25.2
- SUVmax liver, mean (patients): 9.5
- SUVmax liver, min (patients): 4.5
- SUVmax lungs, max (patients): 3.1
- SUVmax lungs, mean (patients): 1.1
- SUVmax lungs, min (patients): 0.5
- SUVmax pancreas, max (patients): 7.9
- SUVmax pancreas, mean (patients): 3.7
- SUVmax pancreas, min (patients): 1.8
- SUVmax parotic gland, max (patients): 42.3
- SUVmax parotic gland, mean (patients): 23.8
- SUVmax parotic gland, min (patients): 8.2
- SUVmax spleen, max (patients): 21.0
- SUVmax spleen, mean (patients): 11.8
- SUVmax spleen, min (patients): 4.7
- SUVmax submandibular gland, max (patients): 43.8
- SUVmax submandibular gland, mean (patients): 27.0
- SUVmax submandibular gland, min (patients): 10.1
- SUVmean bladder, max (patients): 85.7
- SUVmean bladder, min (patients): 0.3
- SUVmean bloodpool, max (patients): 17.0
- SUVmean bloodpool, mean (patients): 2.0
- SUVmean bloodpool, min (patients): 1.1
- SUVmean duodenum, max (patients): 23.9
- SUVmean duodenum, mean (patients): 10.9
- SUVmean duodenum, min (patients): 1.9
- SUVmean kidney, max (patients): 54.7
- SUVmean kidney, mean (patients): 32.4
- SUVmean kidney, min (patients): 13.2
- SUVmean liver, max (patients): 17.7
- SUVmean liver, mean (patients): 7.0
- SUVmean liver, min (patients): 3.2
- SUVmean lungs, max (patients): 2.0
- SUVmean lungs, mean (patients): 0.7
- SUVmean lungs, min (patients): 0.3
- SUVmean pancreas, max (patients): 5.5
- SUVmean pancreas, mean (patients): 2.5
- SUVmean pancreas, min (patients): 1.3
- SUVmean parotic gland, max (patients): 32.7
- SUVmean parotic gland, mean (patients): 16.9
- SUVmean parotic gland, min (patients): 5.5
- SUVmean spleen, max (patients): 17.1
- SUVmean spleen, mean (patients): 9.1
- SUVmean spleen, min (patients): 3.4
- SUVmean submandibular gland, max (patients): 29.7
- SUVmean submandibular gland, mean (patients): 19.6
- SUVmean submandibular gland, min (patients): 7.0
- SUVmax background, max (patients; gluteal muscle): 1.8
- SUVmax background, mean (patients; gluteal muscle): 1.0
- SUVmax background, min (patients; gluteal muscle): 0.6
- SUVmean background, max (patients; gluteal muscle): 1.2
- SUVmean background, mean (patients; gluteal muscle): 0.6
- SUVmean background, min (patients; gluteal muscle): 0.4
- SUVmax bone, max (patients; non-diseased bone): 3.1
- SUVmax bone, mean (patients; non-diseased bone): 1.7
- SUVmax bone, min (patients; non-diseased bone): 0.8
- SUVmean bone, max (patients; non-diseased bone): 2.1
- SUVmean bone, mean (patients; non-diseased bone): 1.1
- SUVmean bone, min (patients; non-diseased bone): 0.6
- SUVmax tumor, max (patients; tumor lesions): 167.2
- SUVmax tumor, mean (patients; tumor lesions): 27.6
- SUVmax tumor, min (patients; tumor lesions): 3.1
- SUVmean tumor, max (patients; tumor lesions): 115.7
- SUVmean tumor, min (patients; tumor lesions): 2.1
- SUVmean tumor, mean (patients; tumor lesions, listed as 18F-rhPSMA-7): 20.0±20.2 and 20.0
- SUVmean bladder, mean (patients; listed as 18F-rhPSMA-7): 6.3
- Biodistribution adrenals [1]: 3.0 ± 0.45 % ID/g
- Biodistribution blood [1]: 1.1 ± 0.03 % ID/g
- Biodistribution bone [1]: 0.91 ± 0.11 % ID/g
- Biodistribution heart [1]: 0.69 ± 0.07 % ID/g
- Biodistribution intestine [1]: 0.60 ± 0.27 % ID/g
- Biodistribution kidneys [1]: 71.3 ± 13.3 % ID/g
- Biodistribution liver [1]: 0.67 ± 0.07 % ID/g
- Biodistribution lung [1]: 1.4 ± 0.17 % ID/g
- Biodistribution muscle [1]: 0.36 ± 0.06 % ID/g
- Biodistribution pancreas [1]: 0.60 ± 0.10 % ID/g
- Biodistribution spleen [1]: 11.1 ± 2.3 % ID/g
- Biodistribution stomach [1]: 0.49 ± 0.07 % ID/g
- Biodistribution tumor ([1]; LNCaP tumor): 10.4 ± 0.67 % ID/g
